Experimental findings from patent US12150995B2, “IRAK degraders and uses thereof” (Kymera Therapeutics, Inc., priority 2020, dated 2024) are described below.

Where only a bound is given, the exact number is not on record here.

The experiment has as its target T1, IRAK4 (Homo sapiens, UniProt Q9NWZ3).
T1 construct: endogenous in cells; host or cells: OCI-LY10
T1 sequence (Q9NWZ3 1-460): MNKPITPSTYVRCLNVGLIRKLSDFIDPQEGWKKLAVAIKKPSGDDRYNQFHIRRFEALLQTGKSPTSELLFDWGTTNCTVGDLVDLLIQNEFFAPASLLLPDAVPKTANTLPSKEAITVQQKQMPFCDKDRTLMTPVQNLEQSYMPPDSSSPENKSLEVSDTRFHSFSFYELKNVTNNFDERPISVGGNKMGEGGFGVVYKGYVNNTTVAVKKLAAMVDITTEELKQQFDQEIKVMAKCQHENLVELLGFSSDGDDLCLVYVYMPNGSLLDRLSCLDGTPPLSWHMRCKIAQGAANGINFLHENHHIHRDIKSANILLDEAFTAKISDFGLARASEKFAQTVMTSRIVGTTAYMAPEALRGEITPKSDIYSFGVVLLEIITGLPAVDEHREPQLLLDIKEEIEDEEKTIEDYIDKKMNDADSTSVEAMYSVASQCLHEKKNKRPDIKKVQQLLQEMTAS
Description: IRAK4 MSD Degradation in OCI-LY10. The experiment is classed as cell-based. Conditions: OCI-LY10 cells, Meso Scale Discovery, incubated 4 to 24 hours. The method, boiled down:
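IRAK4 degradation was quantified by Meso Scale electrochemiluminescence (anti-IRAK4 capture and detection antibodies) in lysates of treated OCI-LY10 cells. Compounds were dosed at 8 concentrations (1:3 dilutions, top 1 to 10 μM) for 4 to 24 h; DC50 derived by three-parameter logistic fitting.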

By DC50 is commonly meant the midpoint of the concentration-degradation curve. `CC(C)(O)c1cc2nn([C@H]3CC[C@H](CN4CCC(c5cccc6c(N7CCC(=O)NC7=O)cncc56)CC4)CC3)cc2cc1NC(=O)c1cccc(C(F)(F)F)n1` [I-78, N-[2-[4-[[4-[4-(2,4-dioxohexahydropyrimidin-1-yl)-8-isoquinolyl]-1-piperidyl]methyl]cyclohexyl]-6-(1-hydroxy-1-methyl-ethyl)indazol-5-yl]-6-(trifluoromethyl)pyridine-2-carboxamide] came in with a DC50 of less than 10 nM.

Regarding `CC(C)(N)c1cc2nn([C@H]3CC[C@H](CN4C5CCC4CN(c4cccc6c(N7CCC(=O)NC7=O)cncc46)C5)CC3)cc2cc1NC(=O)c1cccc(C(F)(F)F)n1` [I-227], the DC50 was less than 10 nM.

With `Cn1c(=O)n(C2CCC(=O)NC2=O)c2cccc(C3CCN(C(=O)[C@H]4CC[C@H](n5cc6cc(NC(=O)c7cccc(C(F)(F)F)n7)ccc6n5)CC4)CC3)c21` (stereo partly shown) [I-94, N-[2-[4-[4-[1-(2,6-dioxo-3-piperidyl)-3-methyl-2-oxo-benzimidazol-4-yl]piperidine-1-carbonyl]cyclohexyl]indazol-5-yl]-6-(trifluoromethyl)pyridine-2-carboxamide], the DC50 was more than 200 nM.

In the case of `CC(C)(O)c1cc2nc([C@H]3CC[C@H](C(=O)N4CCN(CCNc5cccc6c5C(=O)N(C5CCC(=O)NC5=O)C6=O)CC4)CC3)sc2cc1NC(=O)c1cccc(C#N)n1` (stereo partly shown) [I-434], the 50% degradation concentration (DC50) lay in the range of 50 to 100 nM.

As for `COc1cc2nn([C@H]3CC[C@H](CN4CCC(c5cccc6c5n(C)c(=O)n6C5CCC(=O)NC5=O)CC4)CC3)cc2cc1NC(=O)c1cnc(C)c(Cl)c1` (stereo partly shown) [I-134], the DC50 was more than 200 nM.

In the case of `Cn1c(=O)n(C2CCC(=O)NC2=O)c2cccc(C3CCN(C[C@H]4CC[C@H](n5cc6cc(NC(=O)c7cccc(C(F)(F)F)n7)c(C7CC7)cc6n5)CC4)CC3)c21` (stereo partly shown) [I-69], the DC50 is less than 10 nM.

`COc1cc2nn([C@H]3C[C@H](CN4CCC(c5c(C)ccc6c5n(C)c(=O)n6C5CCC(=O)NC5=O)CC4)C3)cc2cc1NC(=O)c1cccc(C(F)(F)F)n1` (stereo partly shown) [I-137] yielded a half-maximal degradation concentration (DC50) of less than 10 nM.

Compound `CC(C)Nc1cc(-c2ccc3cc(C#N)cnn23)ncc1C(=O)N[C@H]1CC[C@H](CN(C)C2CCN(c3cccc4c3n(C)c(=O)n4C3CCC(=O)NC3=O)CC2)CC1` (stereo partly shown) [I-179] showed a DC50 of less than 10 nM.

For `COc1cc2nn([C@H]3C[C@H](CN4CCC(c5ccc6c(N7CCC(=O)NC7=O)cncc6c5)CC4)C3)cc2cc1NC(=O)c1cccc(C(F)(F)F)n1` [I-119], the DC50 was more than 200 nM.

The compound `COc1cc2nn([C@H]3CC[C@H](CN4CC[C@@H](c5cccc6c(N7CCC(=O)NC7=O)cncc56)C4)CC3)cc2cc1NC(=O)c1cccc(C(F)(F)F)n1` [I-291] showed a 50% degradation concentration (DC50) of 10 to 50 nM.

In turn, `Cn1c(=O)n(C2CCC(=O)NC2=O)c2cccc(C3CCN(C[C@H]4CC[C@H](n5cc6cc(NC(=O)c7ncc(Cl)s7)ccc6n5)CC4)CC3)c21` (stereo partly shown) [I-247] had a half-maximal degradation concentration (DC50) of more than 200 nM.

`Cc1cccc(C(=O)Nc2cc3sc([C@H]4CC[C@H](CN5CCN(CCNc6cccc7c6C(=O)N(C6CCC(=O)NC6=O)C7=O)[C@H](C)C5)CC4)nc3cc2C(C)(C)O)n1` (stereo partly shown) [I-470] had a 50% degradation concentration (DC50) of 10 to 50 nM.

In turn, `COc1cc2nn([C@H]3C[C@H](CN4CCC(c5cccc6c(N7CCC(=O)NC7=O)cncc56)CC4)C3)cc2cc1NC(=O)c1cccc(C(F)(F)F)n1` [I-91] came in with a DC50 of 10 to 50 nM.

In turn, `COc1ccc2c(c1C1CCN(C[C@H]3CC[C@H](n4cc5cc(NC(=O)c6cccc(C(F)(F)F)n6)c(F)cc5n4)CC3)CC1)n(C)c(=O)n2C1CCC(=O)NC1=O` (stereo partly shown) [I-47] had a DC50 of 10 to 50 nM.

Turning to `COc1cc2nn(CCN(C)C3CCN(c4cccc5c4n(C)c(=O)n5C4CCC(=O)NC4=O)CC3)cc2cc1NC(=O)c1cnn2cccnc12` (stereo not shown) [I-21, N-[2-[2-[[1-[1-(2,6-dioxo-3-piperidyl)-3-methyl-2-oxo-benzimidazol-4-yl]-4-piperidyl]-methyl-amino]ethyl]-6-methoxy-indazol-5-yl]pyrazolo[1,5-a]pyrimidine-3-carboxamide], the DC50 was 100 to 200 nM.

The compound `COc1cc2nn([C@H]3CC[C@H](CN4CCC(c5cccc6c(N7CCC(=O)NC7=O)cncc56)CC4)CC3)cc2cc1NC(=O)c1cncc(C#N)c1` [I-121] gave a DC50 of 10 to 50 nM.

Consider `COc1cc2nn([C@H]3CC[C@H](CN4CC=C(c5cccc6c5n(C)c(=O)n6C5CCC(=O)NC5=O)C4)CC3)cc2cc1NC(=O)c1cccc(C(F)(F)F)n1` (stereo partly shown) [I-266], for which the DC50 was less than 10 nM.

The compound `COc1cc2nn([C@H]3CC[C@H](CN4CCN(c5cccc6c(N7CCC(=O)NC7=O)cncc56)CC4)CC3)cc2cc1NC(=O)c1cncc(C(F)(F)F)n1` [I-299] yielded a DC50 of less than 10 nM.

Turning to `CC(C)(O)c1cc2nc([C@H]3CC[C@H](C(=O)N4CC5(CC(CCNc6cccc7c6C(=O)N(C6CCC(=O)NC6=O)C7=O)C5)C4)CC3)sc2cc1NC(=O)c1cncc(C#N)c1` (stereo partly shown) [I-448], the DC50 is more than 200 nM.

In turn, `CN(CCCCNc1cccc2c1C(=O)N(C1CCC(=O)NC1=O)C2=O)C[C@H]1CC[C@H](c2nc3cc(C(C)(C)O)c(NC(=O)c4cccc(C#N)n4)cc3s2)CC1` (stereo partly shown) [I-445] showed a DC50 of less than 10 nM.

For the compound `Cn1c(=O)n(C2CCC(=O)NC2=O)c2cccc(C3CCN(C[C@H]4CC[C@H](N5Cc6cc(NC(=O)c7cccc(C(F)(F)F)n7)c(N7C[C@H]8C[C@@H]7CO8)cc6C5=O)CC4)CC3)c21` (stereo partly shown) [I-29], the DC50 is less than 10 nM.

As to `CN(C[C@H]1CC[C@H](c2cc3cc(NC(=O)c4cccc(C(F)(F)F)n4)c(F)cc3n2C)CC1)C1CCN(c2cccc3c2n(C)c(=O)n3C2CCC(=O)NC2=O)CC1` (stereo partly shown) [I-59], the DC50 is more than 200 nM.

`Cn1c(=O)n(C2CCC(=O)NC2=O)c2cccc(N3CC4CCC(C3)N4C[C@H]3CC[C@H](n4cc5cc(NC(=O)c6cccc(C(F)(F)F)n6)ccc5n4)CC3)c21` (stereo partly shown) [I-164] came in with a DC50 of less than 10 nM.

As for `COc1cc2nn([C@H]3CC[C@H](CN4CC=C(c5cccc6c(N7CCC(=O)NC7=O)cncc56)CC4)CC3)cc2cc1NC(=O)c1cccc(C(F)(F)F)n1` [I-357], the DC50 is less than 10 nM.

As for `CC(C)(O)c1cc2nc([C@H]3CC[C@H](C(=O)N4CCC(CCNc5cccc6c5C(=O)N(C5CCC(=O)NC5=O)C6=O)CC4)CC3)sc2cc1NC(=O)c1cccc(C(F)(F)F)n1` (stereo partly shown) [I-491], the DC50 was in the range of 50 to 100 nM.

In the case of `COc1cc2nn([C@H]3CC[C@H](CN(C)C4CCN(c5c(C)ccc6c5n(C)c(=O)n6C5CCC(=O)NC5=O)CC4)CC3)cc2cc1NC(=O)c1cccc(C(F)(F)F)n1` (stereo partly shown) [I-40], the DC50 fell in the range of 10 to 50 nM.

`COc1cc2nn([C@H]3CC[C@H](CN4CC5(CCN(c6cccc7c6n(C)c(=O)n7C6CCC(=O)NC6=O)CC5)C4)CC3)cc2cc1NC(=O)c1cncc(C#N)c1` (stereo partly shown) [I-206] yielded a DC50 of less than 10 nM.

As to `COc1cc2nn([C@H]3CC[C@H](CN(C)C4CCN(c5cc(C)cc6c5n(C)c(=O)n6C5CCC(=O)NC5=O)CC4)CC3)cc2cc1NC(=O)c1cccc(C(F)(F)F)n1` (stereo partly shown) [I-56], the DC50 fell in the range of 10 to 50 nM.

In turn, `Cc1cc2nn([C@H]3CC[C@H](CN4C5CC4CN(c4cccc6c4n(C)c(=O)n6C4CCC(=O)NC4=O)C5)CC3)cc2cc1NC(=O)c1cccc(C(F)(F)F)n1` (stereo partly shown) [I-396] returned a DC50 of 10 to 50 nM.

Compound `Cn1c(=O)n(C2CCC(=O)NC2=O)c2cccc(N3C[C@@H]4C[C@H]3CN4C[C@H]3CC[C@H](n4cc5cc(NC(=O)c6cccc(C(F)(F)F)n6)ccc5n4)CC3)c21` (stereo partly shown) [I-423] came in with a DC50 of less than 10 nM.

`CN(C(=O)[C@H]1CC[C@H](n2cc3cc(NC(=O)c4cccc(C(F)(F)F)n4)ccc3n2)CC1)C1CCN(c2cccc3c2n(C)c(=O)n3C2CCC(=O)NC2=O)CC1` (stereo partly shown) [I-186] registered a DC50 of less than 10 nM.

As for `Cc1cccc(C(=O)Nc2cc3sc([C@H]4CC[C@H](CN5C[C@@H]6C[C@H]5CN6CCCNc5cccc6c5C(=O)N(C5CCC(=O)NC5=O)C6=O)CC4)nc3cc2C(C)(C)O)n1` (stereo partly shown) [I-439], the DC50 was 10 to 50 nM.

Take `COc1ccc2c(c1C1CCN(C[C@H]3C[C@H](n4cc5cc(NC(=O)c6cccc(C(F)(F)F)n6)c(Cl)cc5n4)C3)CC1)n(C)c(=O)n2C1CCC(=O)NC1=O` (stereo partly shown) [I-145]: the DC50 was 10 to 50 nM.

Consider `Cc1nc(C(=O)Nc2cc3cn([C@H]4CC[C@H](CN(C)C5CCN(c6cccc7c6n(C)c(=O)n7C6CCC(=O)N(C)C6=O)CC5)CC4)nc3cc2C(C)(C)O)co1` (stereo partly shown) [I-61], for which the DC50 is more than 200 nM.

The compound `COc1cc2nc([C@H]3CC[C@H](CN4CCC(c5ccc6c(N7CCC(=O)NC7=O)cncc6c5)CC4)CC3)sc2cc1NC(=O)c1cccc(C(F)(F)F)n1` [I-125] yielded a DC50 of less than 10 nM.

With `CC(C)(O)c1cc2nc([C@H]3CC[C@H](CN4CCO[C@H](CCCNc5cccc6c5C(=O)N(C5CCC(=O)NC5=O)C6=O)C4)CC3)sc2cc1NC(=O)c1cccc(C#N)n1` (stereo partly shown) [I-442], the DC50 is 50 to 100 nM.

The compound `COc1cc2nc([C@H]3CC[C@H](CN4CC5(CC(CCNc6cccc7c6C(=O)N(C6CCC(=O)NC6=O)C7=O)C5)C4)CC3)cn2cc1NC(=O)c1cccc(C(F)(F)F)n1` (stereo partly shown) [I-10] displayed a DC50 of 50 to 100 nM.

As to `COc1cc2c(cc1NC(=O)c1cccc(C(F)(F)F)n1)cc([C@H]1CC[C@H](CN3CCC(c4cccc5c4n(C)c(=O)n5C4CCC(=O)NC4=O)CC3)CC1)n2C` (stereo partly shown) [I-43], the DC50 was more than 200 nM.

The compound `CC(C)Nc1cc(-c2ccc3cc(C#N)cnn23)ncc1C(=O)N[C@H]1CC[C@H](CN2CCN(c3cccc4c(N5CCC(=O)NC5=O)cncc34)CC2)CC1` [I-373] had a DC50 of 10 to 50 nM.

Consider `Cn1c(=O)n(C2CCC(=O)NC2=O)c2ccc(Cl)c(C3CCN(C[C@H]4CC[C@H](n5cc6cc(NC(=O)c7cccc(C(F)(F)F)n7)ccc6n5)CC4)CC3)c21` (stereo partly shown) [I-106], for which the DC50 lay in the range of 10 to 50 nM.
